Assay results from ChEMBL document CHEMBL1629525, “Synthesis and characterization of 1,3-dihydro-benzo[b][1,4]diazepin-2-one derivatives: Part 4. In vivo active potent and selective non-competitive metabotropic glutamate receptor 2/3 antagonists” (Bioorg Med Chem Lett, 2010).
In brackets after ≈: the same amount, converted by molar mass.

Columns and labels:
[1] = molecular target: T1, Metabotropic glutamate receptor 2 (Rattus norvegicus, UniProt P31421); assay: Antagonist activity at recombinant rat mGluR2 expressed in forskolin-stimulated CHO cells assessed as inhibition of (1S,3R)-ACPD induced cAMP production; type: functional, cell-based
[2] = molecular target: T1, Metabotropic glutamate receptor 2; assay: Partial displacement of [3H]LY354740 from recombinant rat mGluR2
[3] = Thermodynamic solubility of the compound at pH 3; type: physicochemical; conditions: buffer
Cytochrome P450 3A4 = Cytochrome P450 3A4 (Homo sapiens, UniProt P08684); assay: Inhibition of CYP3A4; type: ADME
[4] = molecular target: Metabotropic glutamate receptor 3 (Rattus norvegicus, UniProt P31422); assay: Antagonist activity at rat mGluR3 receptor expressed in CHO cells assessed as inhibition of GIRK current; type: functional, cell-based
[5] = molecular target: T1, Metabotropic glutamate receptor 2; assay: Antagonist activity at rat mGluR2 receptor expressed in CHO cells assessed as inhibition of GIRK current; type: functional, cell-based
[6] = molecular target: Metabotropic glutamate receptor 2 (Homo sapiens, UniProt Q14416); assay: Antagonist activity at human mGluR2 receptor expressed in CHO cells assessed as inhibition of GIRK current; type: functional, cell-based
Metabotropic glutamate receptor 2 (Homo sapiens, UniProt Q14416), sequence (Q14416 whole entry): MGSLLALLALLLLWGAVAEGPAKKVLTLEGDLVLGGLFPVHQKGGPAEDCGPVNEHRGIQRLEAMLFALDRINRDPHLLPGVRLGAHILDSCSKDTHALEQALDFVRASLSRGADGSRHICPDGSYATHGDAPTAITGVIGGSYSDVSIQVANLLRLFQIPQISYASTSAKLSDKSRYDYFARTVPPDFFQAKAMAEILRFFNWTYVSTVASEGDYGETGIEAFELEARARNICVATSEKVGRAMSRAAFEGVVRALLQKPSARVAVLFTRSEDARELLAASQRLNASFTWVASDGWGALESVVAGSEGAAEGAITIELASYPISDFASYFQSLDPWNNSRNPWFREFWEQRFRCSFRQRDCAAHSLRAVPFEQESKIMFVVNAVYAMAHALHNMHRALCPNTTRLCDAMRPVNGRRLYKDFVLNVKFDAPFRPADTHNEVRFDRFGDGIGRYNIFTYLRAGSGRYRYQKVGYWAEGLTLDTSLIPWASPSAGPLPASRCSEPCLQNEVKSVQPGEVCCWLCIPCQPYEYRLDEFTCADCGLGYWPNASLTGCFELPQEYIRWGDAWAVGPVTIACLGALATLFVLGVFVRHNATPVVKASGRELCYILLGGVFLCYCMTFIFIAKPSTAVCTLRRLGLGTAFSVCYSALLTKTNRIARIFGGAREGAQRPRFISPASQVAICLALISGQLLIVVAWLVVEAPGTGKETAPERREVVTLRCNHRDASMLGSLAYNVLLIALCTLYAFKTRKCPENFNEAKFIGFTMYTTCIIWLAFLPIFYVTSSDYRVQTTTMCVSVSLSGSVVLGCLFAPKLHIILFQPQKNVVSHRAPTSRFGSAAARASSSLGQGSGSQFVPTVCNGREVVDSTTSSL

T1 sequence (P31421 whole entry): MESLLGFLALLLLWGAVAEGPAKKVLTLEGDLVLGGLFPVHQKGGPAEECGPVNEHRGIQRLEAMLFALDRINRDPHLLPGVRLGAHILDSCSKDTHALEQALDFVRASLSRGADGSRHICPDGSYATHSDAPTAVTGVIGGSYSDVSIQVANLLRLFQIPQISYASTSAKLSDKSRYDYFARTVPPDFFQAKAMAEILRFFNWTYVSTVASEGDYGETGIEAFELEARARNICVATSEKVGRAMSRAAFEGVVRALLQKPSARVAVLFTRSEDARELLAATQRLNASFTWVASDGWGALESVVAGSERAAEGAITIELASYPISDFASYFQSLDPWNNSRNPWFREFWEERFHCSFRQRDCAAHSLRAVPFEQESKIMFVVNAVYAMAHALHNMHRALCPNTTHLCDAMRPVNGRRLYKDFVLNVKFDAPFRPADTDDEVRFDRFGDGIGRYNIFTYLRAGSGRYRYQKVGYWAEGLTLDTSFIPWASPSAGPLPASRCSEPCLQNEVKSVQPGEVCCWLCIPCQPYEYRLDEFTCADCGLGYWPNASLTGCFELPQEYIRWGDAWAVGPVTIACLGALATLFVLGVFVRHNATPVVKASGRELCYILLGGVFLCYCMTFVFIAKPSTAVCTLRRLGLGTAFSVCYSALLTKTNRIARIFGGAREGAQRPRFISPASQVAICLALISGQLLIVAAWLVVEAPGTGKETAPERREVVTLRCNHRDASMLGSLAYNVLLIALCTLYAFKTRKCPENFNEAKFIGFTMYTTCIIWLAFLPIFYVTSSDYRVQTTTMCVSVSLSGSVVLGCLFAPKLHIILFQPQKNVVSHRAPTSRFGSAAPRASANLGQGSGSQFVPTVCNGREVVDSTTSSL
Metabotropic glutamate receptor 3, sequence (P31422 whole entry): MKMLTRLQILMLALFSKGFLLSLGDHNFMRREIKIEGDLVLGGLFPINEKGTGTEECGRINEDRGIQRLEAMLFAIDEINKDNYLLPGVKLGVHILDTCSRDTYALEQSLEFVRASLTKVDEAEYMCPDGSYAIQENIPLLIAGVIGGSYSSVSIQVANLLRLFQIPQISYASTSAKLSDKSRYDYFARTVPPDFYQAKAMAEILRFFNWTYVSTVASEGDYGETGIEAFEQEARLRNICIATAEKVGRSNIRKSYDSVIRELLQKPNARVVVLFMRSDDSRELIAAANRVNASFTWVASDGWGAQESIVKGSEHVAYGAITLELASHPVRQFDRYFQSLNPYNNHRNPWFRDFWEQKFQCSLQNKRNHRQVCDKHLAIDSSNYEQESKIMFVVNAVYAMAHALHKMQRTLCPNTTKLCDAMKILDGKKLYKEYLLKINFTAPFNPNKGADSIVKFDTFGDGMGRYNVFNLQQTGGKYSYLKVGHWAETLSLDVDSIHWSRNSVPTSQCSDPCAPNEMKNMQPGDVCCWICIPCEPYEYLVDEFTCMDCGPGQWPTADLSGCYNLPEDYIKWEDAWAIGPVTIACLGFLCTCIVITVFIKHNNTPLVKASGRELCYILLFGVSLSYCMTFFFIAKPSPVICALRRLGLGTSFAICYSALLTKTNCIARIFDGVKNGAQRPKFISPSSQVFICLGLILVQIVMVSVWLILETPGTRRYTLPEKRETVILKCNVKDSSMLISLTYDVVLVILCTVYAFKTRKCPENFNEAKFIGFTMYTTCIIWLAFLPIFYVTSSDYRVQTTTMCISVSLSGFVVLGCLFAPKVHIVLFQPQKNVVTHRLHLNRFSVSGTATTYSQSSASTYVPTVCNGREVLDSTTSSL
Cytochrome P450 3A4, sequence (P08684 whole entry): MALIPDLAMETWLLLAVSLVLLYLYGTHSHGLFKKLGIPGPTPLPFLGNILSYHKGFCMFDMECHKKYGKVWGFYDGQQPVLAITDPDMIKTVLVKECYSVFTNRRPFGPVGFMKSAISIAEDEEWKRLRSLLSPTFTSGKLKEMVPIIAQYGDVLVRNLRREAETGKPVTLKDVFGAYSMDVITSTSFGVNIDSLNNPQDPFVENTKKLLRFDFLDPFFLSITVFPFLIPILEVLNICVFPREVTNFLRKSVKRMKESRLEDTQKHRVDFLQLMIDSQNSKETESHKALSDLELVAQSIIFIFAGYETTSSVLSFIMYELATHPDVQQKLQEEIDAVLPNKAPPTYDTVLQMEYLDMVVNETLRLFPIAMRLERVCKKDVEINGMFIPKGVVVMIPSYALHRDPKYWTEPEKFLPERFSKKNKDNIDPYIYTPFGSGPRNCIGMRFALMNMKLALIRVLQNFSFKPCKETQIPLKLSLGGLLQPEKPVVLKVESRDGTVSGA

`CCc1ccc(-c2cccc(C3=Nc4cc(C)c(C(F)(F)F)cc4NC(=O)C3)c2)cn1` showed an IC50 [1] of 18 nM and an IC50 [2] of 9 nM.

In the case of `COCc1cc(-c2cccc(C3=Nc4cc(C)c(C(F)(F)F)cc4NC(=O)C3)c2)cc(C)n1`, the IC50 [1] is reported as 5 nM and the IC50 [2] is reported as 8 nM.

In the case of `Cc1cc2c(cc1C(F)(F)F)NC(=O)CC(c1cccc(-c3ccnc(C#N)c3)c1)=N2`, the IC50 [1] is reported as 18 nM and the IC50 [2] is reported as 12 nM.

For `Cc1cc2c(cc1C(F)(F)F)NC(=O)CC(c1cccc(-c3cnccn3)c1)=N2`, the IC50 [1] was 16 nM and the IC50 [2] was 20 nM.

`Cc1cc2c(cc1C(F)(F)F)NC(=O)CC(c1cccc(-c3ccccn3)c1)=N2` gave an IC50 [1] of 30 nM and an IC50 [2] of 26 nM.

With `Cc1cc2c(cc1C(F)(F)F)NC(=O)CC(c1cccc(-c3ccnc(-n4cccc4)c3)c1)=N2` the IC50 [2] was 59 nM.

Molecule `Cc1cc2c(cc1C(F)(F)F)NC(=O)CC(c1cccc(-c3ccncc3)c1)=N2` has a solubility thermodynamic [3] of 5 µg/mL (≈ 12.6 µM), an IC50 [1] of 11 nM and an IC50 (Cytochrome P450 3A4) of 200 nM. For the same molecule, the IC50 [2] was 4 nM.

`Cc1cc2c(cc1C(F)(F)F)NC(=O)CC(c1cccc(-c3ccnc(C4CC4)c3)c1)=N2` showed an IC50 [1] of 6 nM and an IC50 [2] of 10 nM.

For `O=C1CC(c2cccc(-c3ccncc3)c2)=Nc2ccc(C(F)(F)F)cc2N1`, the IC50 [4] was 29 nM, the IC50 [5] was 101 nM and the IC50 [1] was 26 nM. It also gave an IC50 [2] of 10 nM and an IC50 [6] of 52 nM.

In the case of `Cc1cc2c(cc1C(F)(F)F)NC(=O)CC(c1cccc(-n3ccnc3)c1)=N2`, the IC50 (Cytochrome P450 3A4) is reported as less than 100 nM.

With `Cc1cc2c(cc1C(F)(F)F)NC(=O)CC(c1cccc(-c3ccnc(CO)c3)c1)=N2` the IC50 [1] was 18 nM and the IC50 [2] was 13 nM.

`Cc1ccc(-c2cccc(C3=Nc4cc(C)c(C(F)(F)F)cc4NC(=O)C3)c2)cn1` showed an IC50 [1] of 5 nM and an IC50 [2] of 13 nM.

With `Cc1cc2c(cc1C(F)(F)F)NC(=O)CC(c1cccc(-c3ccnc(N4CCOCC4)c3)c1)=N2` the IC50 [2] was 29 nM.

Work on `Cc1cc2c(cc1C(F)(F)F)NC(=O)CC(c1cccc(-c3cncnc3)c1)=N2` yielded an IC50 [1] of 48 nM and an IC50 [2] of 23 nM.

With `Cc1cc2c(cc1C(F)(F)F)NC(=O)CC(c1cccc(-c3ccnc(Cc4ccccc4)c3)c1)=N2` the IC50 [1] was 5 nM and the IC50 [2] was 16 nM.

With `Cc1cc2c(cc1C(F)(F)F)NC(=O)CC(c1cccc(-c3ccc(N(C)C)nc3)c1)=N2` the IC50 [2] was 86 nM.

`Cc1cc(-c2cccc(C3=Nc4cc(C(F)(F)F)c(C(F)(F)F)cc4NC(=O)C3)c2)cc(C)n1` gave an IC50 [1] of 7 nM and an IC50 [2] of 7 nM.

In the case of `Cc1cc2c(cc1C(F)(F)F)NC(=O)CC(c1cccc(-c3ccnnc3)c1)=N2`, the IC50 [1] is reported as 72 nM and the IC50 [2] is reported as 18 nM.

With `Cc1cc2c(cc1C(F)(F)F)NC(=O)CC(c1cccc(-c3ccnc(CN(C)C)c3)c1)=N2` the IC50 [2] was 274 nM.

`Cc1cc(-c2cccc(C3=Nc4cc(Cl)c(Cl)cc4NC(=O)C3)c2)ccn1` gave an IC50 [4] of 30 nM, an IC50 [1] of 2 nM and an IC50 [2] of 4 nM. The IC50 [6] was 7 nM.

With `Cc1cc2c(cc1C(F)(F)F)NC(=O)CC(c1cccc(-c3ccnc(C4CCCC4)c3)c1)=N2` the IC50 [1] was 7 nM and the IC50 [2] was 10 nM.

`CCc1cc(-c2cccc(C3=Nc4cc(C)c(C(F)(F)F)cc4NC(=O)C3)c2)cc(C)n1` gave an IC50 [1] of 4 nM and an IC50 [2] of 2 nM.

With `Cc1cc2c(cc1C(F)(F)F)NC(=O)CC(c1cccc(-c3ccncn3)c1)=N2` the IC50 [1] was 50 nM and the IC50 [2] was 6 nM.

In the case of `Cc1cc2c(cc1C(F)(F)F)NC(=O)CC(c1cccc(-n3nncc3CO)c1)=N2`, the IC50 [2] is reported as 120 nM.

`O=C1CC(c2cccc(-c3ccncc3)c2)=Nc2ccc(Cl)cc2N1` gave an IC50 [1] of 3 nM, an IC50 [2] of 8 nM and an IC50 [6] of 10 nM.
